Reference: patent US20230065953A1, “NOVEL HETEROARYL-TRIAZOLE COMPOUNDS AS PESTICIDES” (Bayer Aktiengesellschaft, priority 2019, published 2023)

Legend:
Assay type in all cases: in vivo
[1] = system: fall armyworm larvae (Spodoptera frugiperda); experiment: Spodoptera frugiperda spray test (maize leaf sections); details: 168 h
In short: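 Percent kill of Spodoptera frugiperda caterpillars read at day 7. Larvae placed on dried Zea mays leaf pieces previously sprayed with test preparation, made from acetone plus DMF and diluted with emulsifier-containing water (1000 ppm).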

[2] = system: adult mosquitoes Aedes aegypti strain MONHEIM; experiment: Aedes aegypti test (AEDSAE surface treatment & contact assay); details: 24 hours after contact, read-out: efficacy (mortality); for mortality at 4 mg/m2: surface concentration 4 mg/m^2, 30 min exposure; for mortality at 20 mg/m2: surface concentration 20 mg/m^2, 30 min exposure
Experimental: Aedes aegypti test (AEDSAE surface treatment & contact assay) • Solvent: Aceton+2000 ppm rapeseed oil methyl ester (RME)
In order to produce a sufficient, active ingredient containing solution it is necessary to solve the test compound in the solvent-mix (acetone at 2 mg/ml/RME 2000 ppm). This solution is pipetted onto a glazed tile and after evaporation of the acetone, adult mosquitoes of the species Aedes aegypti strain MONHEIM are placed onto the dried surface. The exposure time is 30 minutes.
(§1) Mortality in percent (%) is determined 24 hours after contact of the insects to the treated surface. 100% mortality means that all tested insects are dead, whereas 0% means that no insect died.

[3] = system: adult mosquitoes Anopheles funestus strain FUMOZ-R; experiment: Anopheles funestus test (ANPHFU surface treatment & contact assay); details: 24 hours after contact, read-out: efficacy (mortality); for mortality at 20 mg/m2: surface concentration 20 mg/m^2, 30 min exposure; for mortality at 4 mg/m2: surface concentration 4 mg/m^2, 30 min exposure
Experimental: Anopheles funestus Test (ANPHFU Surface Treatment & Contact Assay) • Solvent: Aceton+2000 ppm rapeseed oil methyl ester (RME)
In order to produce a sufficient, active ingredient containing solution it is necessary to solve the test compound in the solvent-mix (acetone at 2 mg/ml/RME 2000 ppm). This solution is pipetted onto a glazed tile and after evaporation of the acetone, adult mosquitoes of the species Anopheles funestus strain FUMOZ-R (Hunt et al., Med. Vet. Entomol. 2005 September; 19(3): 271-275) are placed onto the dried surface. The exposure time is 30 minutes.
as §1

[4] = system: larvae of the banded cucumber beetle (Diabrotica balteata); experiment: Diabrotica balteata spray test; details: 168 h, 100 g/ha (=32 μg/well), wheat seeds, after 7 days, read-out: efficacy (seedling growth)
In short: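 Efficacy in % was read 7 days after infesting with 10-20 larvae per unit. Before infestation, 1-day-germinated wheat seedlings (5 per well) were sprayed with the active ingredient, formulated in acetone and dimethylformamide plus emulsifier and diluted with water containing emulsifier.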

[5] = system: adult flies Musca domestica strain WHO-N; experiment: Musca domestica test (MUSCDO surface treatment & contact assay); details: 24 hours after contact, read-out: efficacy (mortality); for mortality at 4 mg/m2: surface concentration 4 mg/m^2, 30 min exposure; for mortality at 20 mg/m2: surface concentration 20 mg/m^2, 30 min exposure
In short: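 Percent kill read 24 h post-contact, after adult flies (strain WHO-N) spent 30 min on a glazed tile treated with test solution (acetone, 2 mg/ml, plus 2000 ppm rapeseed oil methyl ester) and dried.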

[6] = system: green peach aphid (Myzus persicae); experiment: Myzus persicae spray test; details: foliar, 120 h, Chinese cabbage leaf disks, after 5 days
In short: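 Percent mortality read 5 days after spraying, where 100% is total kill and 0% none. The spray contained compound in acetone plus dimethylformamide, diluted with 1000 ppm emulsifier water. It was applied to Brassica pekinensis leaf disks carrying mixed-instar green peach aphids.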

[7] = system: adult cat fleas (Ctenocephalides felis); experiment: Ctenocephalides felis in-vitro contact test, adult cat flea; details: 5 μg/cm^2 (=500 g/ha), after 48 hours
In short: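 After 48 h of room-temperature exposure in tubes whose walls carried dried compound residue (5 μg/cm^2, from 900 ppm acetone solution), adult cat fleas (5-10 per tube) were heat-challenged at 45-50° C up to 5 min. Fleas unable to climb away were counted dead or moribund, expressed as % efficacy.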

[8] = system: Rhipicephalus microplus larvae (strain Parkhurst, resistant against synthetic pyrethroids); experiment: Rhipicephalus (Boophilus) microplus in-vitro contact test, larval cattle tick; details: 5 μg/cm^2 (=500 g/ha), after 48 hours, read-out: efficacy (larvae dead or moribund)
In short: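 After drying, 20-50 larvae were held per tube at 27° C., 85% relative humidity for 48 h, and efficacy was scored as % dead or moribund.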

[9] = system: adult unfed cat fleas (Ctenocephalides felis); experiment: Ctenocephalides felis oral test; details: 48 h
In short: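 About 20 adult unfed fleas fed through parafilm on cattle blood containing compound (DMSO stock diluted in blood), blood held at 37 °C and fleas at room temperature. Mortality (%) scored after 2 days.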

[10] = system: brown planthopper (Nilaparvata lugens); experiment: Nilaparvata lugens spray test; details: 96 h, rice plants, after 4 days
Experimental: Nilaparvata lugens—Spray Test • Solvent: 78.0 parts by weight of acetone • 1.5 parts by weight of dimethylformamide • Emulsifier: alkylarylpolyglycol ether
To produce a suitable preparation of active compound, 1 part by weight of active compound is mixed with the stated amount of solvents and is diluted with water, containing an emulsifier concentration of 1000 ppm, to the desired concentration. Further test concentrations are prepared by dilution with emulsifier containing water.
Rice plants (Oryza sativa) are sprayed with a preparation of the active ingredient of the desired concentration and the plants are infested with the brown planthopper (Nilaparvata lugens).
After 4 days mortality in % is determined. 100% means all planthoppers have been killed and 0% means none of the planthoppers have been killed.

[11] = system: adult brown dog ticks (Rhipicephalus sanguineus); experiment: Rhipicephalus sanguineus in-vitro contact test with adult brown dog ticks; details: 5 μg/cm^2 (=500 g/ha), after 48 hours, read-out: efficacy (ticks dead or moribund)
In short: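 Contact exposure: dried compound film inside glass tubes, dose 5 μg/cm^2 at 900 ppm, 5-10 adults per tube at room temperature. Scored at 48 h via a heat-escape test on a 45-50° C plate for up to 5 min.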

[12] = system: adult engorged female ticks (Rhipicephalus microplus); experiment: Rhipicephalus (Boophilus) microplus injection test; details: 168 h, egg deposition after 7 days, read-out: efficacy (infertile eggs); for pest or weed control at 0.004 mg: 4 μg/animal
In short: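 Five adult engorged female ticks each injected into the abdomen with 1 μL of compound in DMSO, then kept in a climate chamber. Fertile egg deposition assessed after 7 days, with unclear eggs held until hatching around 42 days; efficacy 100% means all eggs infertile, 0% all fertile.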

[13] = system: green peach aphid (Myzus persicae); experiment: Myzus persicae oral test; details: 120 h
In short: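 Compound was dissolved in acetone, diluted with water and mixed into IPL41 insect medium with sugar under a parafilm seal. A mixed aphid population fed through the parafilm, and mortality (%) was scored after 5 days.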

[14] = system: larvae of the southern green stink bug (Nezara viridula); experiment: Nezara viridula spray test; details: in Hordeum vulgare, 96 h
In short: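 Mortality (%) of stink bug larvae on treated barley (Hordeum vulgare) was scored 4 days after infestation. Test solutions came from an acetone/DMF concentrate diluted with water containing 1000 ppm emulsifier and were sprayed onto plants before larvae were added.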

Structure (SMILES) | mortality at 100 g/ha [1] | mortality at 4 mg/m2 [2] | mortality at 20 mg/m2 [2] | mortality at 20 mg/m2 [3] | pest or weed control at 32 µg/disc, 100 g/ha [4] | mortality at 4 mg/m2 [5] | mortality at 20 mg/m2 [5] | mortality at 100 g/ha [6] | efficacy (fleas dead or moribund) [7] | pest or weed control at 5 µg/cm2 [8] | mortality at 100 ppm [9] | mortality at 100 g/ha ([10]; 100 g/ha) | pest or weed control at 5 µg/cm2, 500 g/ha [11] | pest or weed control at 0.004 mg [12] | mortality at 4 mg/m2 [3] | mortality at 4 ppm [13] | pest or weed control at 0.02 mg ([12]; 20 μg/animal) | mortality at 500 g/ha [14] | mortality at 500 g/ha [10] | mortality at 100 g/ha [14]
CC(NC(=O)c1cc(OC(F)(F)F)cc(C2(C#N)CC2)c1)c1ncnn1-c1ncc(C#N)s1 (racemic) [I-87, (rac)-3-(1-cyanocyclopropyl)-N-{1-[1-(5-cyano-1,3-thiazol-2-yl)-1H-1,2,4-triazol-5-yl]ethyl}-5-(trifluoromethoxy)benzamide] | 100% | 80 to 100% | 80 to 100% | 80 to 100% | 100% | 90 to 100% | 80 to 100% | 100% | – | – | – | – | – | – | – | – | – | – | – | –
Cc1nc([C@H](C)NC(=O)c2cc(C(F)(F)F)cc(C(F)(F)F)c2)n(-c2ncc(C(=O)N(C)C(C)C)s2)n1 [I-10] | 100% | – | – | – | 100% | – | – | – | 90% | 100% | 100% | 90% | 100% | 100% | – | – | – | – | – | –
C[C@H](NC(=O)c1cc(Cl)cc(S(C)(=O)=O)c1)c1ncnn1-c1ncc(C#N)s1 [I-36] | 100% | 80 to 100% | 80 to 100% | – | 100% | – | – | – | 100% | 90% | 100% | – | – | 100% | 80 to 100% | 100% | 100% | – | – | –
C[C@H](NC(=O)c1cc(Cl)cc(C(F)(F)Cl)c1)c1ncnn1-c1ncc(C#N)s1 [I-85] | 100% | 80 to 100% | 80 to 100% | 80 to 100% | 100% | 90 to 100% | 80 to 100% | 100% | – | – | – | – | – | – | 80 to 100% | – | – | – | – | –
C[C@H](NC(=O)c1cc(OC(F)(F)F)cc(C2CC2)c1)c1ncnn1-c1ncc(C(=O)N(C)C)s1 [I-89] | 100% | – | 80 to 100% | – | 100% | – | 80 to 100% | 100% | 100% | 100% | – | – | 80% | – | – | – | – | 100% | 100% | –
Cc1nc([C@H](C)NC(=O)c2cc(OC(F)(F)F)cc(C3CC3)c2)n(-c2ncc(C#N)s2)n1 [I-91] | 100% | – | 80 to 100% | – | 100% | 90 to 100% | 80 to 100% | 90% | – | 100% | – | – | 100% | – | – | – | – | 100% | 100% | –
CNC(=O)c1cnc(-n2nc(C)nc2[C@H](C)NC(=O)c2cc(C(F)(F)F)cc(C(F)(F)F)c2)s1 [I-102] | 100% | – | – | – | 100% | – | – | 90% | 100% | 100% | – | – | – | – | – | – | – | 100% | 100% | –
C[C@H](NC(=O)c1cc(Br)cc(OC(F)(F)F)c1)c1ncnn1-c1ncc(C(=O)N(C)C)s1 [I-118] | 100% | – | 80 to 100% | 80 to 100% | 100% | – | 80 to 100% | – | – | – | – | – | – | – | 80 to 100% | – | – | 100% | – | 100%
C[C@H](NC(=O)c1cc(OC(F)F)cc(SC(F)F)c1)c1ncnn1-c1ncc(C#N)s1 [I-130] | 100% | – | 80 to 100% | 80 to 100% | 100% | 90 to 100% | 80 to 100% | 90% | – | – | – | – | – | – | – | – | – | 100% | – | –
C[C@H](NC(=O)c1cc(OC(F)(F)F)cc(C2(C#N)CC2)c1)c1ncnn1-c1ncc(C#N)s1 [I-142] | 100% | 80 to 100% | 80 to 100% | 80 to 100% | 100% | 90 to 100% | 80 to 100% | 90% | – | – | – | – | – | – | – | – | – | 100% | – | –
